Source: patent publication US20220202964A1, “HEPARANASE COMPOUNDS AND METHODS OF USE” (University of Florida Research Foundation, Incorporated, priority 2019, published 2022)
Like-named read-outs stand apart in the source and are kept apart here.

Columns and labels:
[1] = stated for comparison; cited from earlier work
heparanase [2] = biological target: T1, heparanase (Homo sapiens, UniProt Q9Y251); conditions: substrate for heparanase, comparison value; cited from earlier work
T1 sequence (Q9Y251 36-543): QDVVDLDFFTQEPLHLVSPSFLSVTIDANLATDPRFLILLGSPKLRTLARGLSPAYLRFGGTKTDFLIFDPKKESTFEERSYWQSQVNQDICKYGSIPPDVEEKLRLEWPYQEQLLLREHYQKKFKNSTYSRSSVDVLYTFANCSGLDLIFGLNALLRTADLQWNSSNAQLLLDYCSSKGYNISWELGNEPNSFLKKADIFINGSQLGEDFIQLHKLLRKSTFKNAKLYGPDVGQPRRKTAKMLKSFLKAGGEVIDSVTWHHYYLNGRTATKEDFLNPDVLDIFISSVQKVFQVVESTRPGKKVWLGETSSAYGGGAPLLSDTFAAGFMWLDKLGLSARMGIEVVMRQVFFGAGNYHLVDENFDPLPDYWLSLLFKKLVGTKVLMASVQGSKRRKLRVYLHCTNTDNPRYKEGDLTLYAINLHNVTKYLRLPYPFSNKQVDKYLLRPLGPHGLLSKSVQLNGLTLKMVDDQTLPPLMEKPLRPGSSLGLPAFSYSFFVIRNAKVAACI

heparanase [3] = biological target: T1, heparanase; test: HPLC analysis of compounds 1-4 with heparanase; assay type: biochemical; conditions: 5 μM, heparanase 1 μg, 4 hours, 37° C., NaOAc pH 5.0
Protocol: Heparanase (1 μg, 20 μL) was added to the compounds 1-4 solution (180 μL, 5 μM) in 40 mM NaOAc buffer (pH 5.0) and the mixture was incubated for 4 hours at 37° C. The resulting mixtures were injected into HPLC for analysis. HPLC analysis was performed under the following conditions—mobile phase A: water with 0.1% TFA; B: acetonitrile with 0.1% TFA; 0-20 min: gradient elution, 25-95% B. The trace was monitored by DAD detector at 315 nm.

heparanase [4] = biological target: T1, heparanase; test: Activation of compounds by recombinant heparanase (fluorescence response); assay type: biochemical; conditions: 5 μM compound, 1 μg heparanase, 40 mM NaOAc buffer (pH 5.0), 37° C., λex/em=365 nm/455 nm
Protocol: To a solution of 20 μL, of 50 μM compound 1 (HADP) and 160 μL 40 mM NaOAc (pH=5.0) was added 20 μL, 0.1 μg/μL heparanase to obtain 5 μM 1 (HADP) with 2 μg heparanase solution. After incubation at 37° C. for 2 h, the reaction solution was transferred to quartz cuvettes to measure absorbance or fluorescence. Absorbance spectrum scan range from 250 nm to 500 nm (1 nm increment). fluorescence spectrum setting: λex=365 nm, Slit Width 2.5 nm. Emission was record from 400 nm to 600 nm, Slit Width 5 nm. Absorption spectra were recorded on Shimadzu UV-2700 UV-VIS Spectrophotometer. Fluorescence spectra were recorded on Fluorolog TAU-3 Spectrofluorometer with a xenon lamp (Jobin Yvon-Spex, Instruments S. A., Inc.)
Fluorescence micro cells was charged with 20 μL, of 50 μM compound 1 (HADP) and 160 μL 40 mM NaOAc (pH=5.0). Then 20 μL, 0.05 μg/μL heparanase was added to the above solution. Fluorescence spectra were recorded from 0 min to 3 h. fluorescence spectrum setting: λex=365 nm, Slit Width 2.5 nm. Emission was record from 400 nm to 600 nm, Slit Width 5 nm.
To a solution of 20 μL, of 50 μM each compound and 160 μL, 40 mM NaOAc (pH=5.0) was added 20 μL, 0.05 μg/μL heparanase to obtain 5 μM each compound with 1 μg heparanase solution in 96-well microplate. Each compound was performed in triplicate. Then the microplate was sealed with sealing film and incubated at 37° C. Fluorescence intensity was recorded on Spectramax M5 Multimode plate reader (Molecular Devices, USA) at each timepoint. λex/em=365 nm/455 nm.
5 μM compound 1 (HADP) was incubated with various biological species at the indicated amount/concentration in 96-well microplate. Cysteine (5 mM), Glutathione (5 mM), H2O2 (100 μM), Esterase, Chondroitinase ABC, Hyaluronidase, Lysozyme, β-Glucuronidase, β-Glucosidase (5 μg each) and heparanase (2 μg). For Chondroitinase ABC and Hyaluronidase, 50 μg was also tested. Each sample was performed in triplicates. Then the microplate was sealed with sealing film and incubated at 37° C. for 4 hours. Fluorescence intensity was recorded on Spectramax M5 Multimode plate reader (Molecular Devices, USA). λex/em=365 nm/455 nm.

[5] = pH profile of fluorescence / pKa; assay type: physicochemical; conditions: hydrolytic product of HADP, fluorescence vs pH
Protocol: So, pH profiles of the fluorophore DiFMU and Compound 1 (HADP) were evaluated. […] In contrast, the pKa of 4-methylumbelliferone is ca. 7.8. […] Moreover, the introduction of the fluorine substituents increased the quantum yield and improved the photostability, enabling highly sensitive detection for heparanase.

Row | Compound | cleavage by heparanase (HPLC trace) (heparanase [3]) | fluorescence response towards heparanase (heparanase [4]) | further results
1 | Cc1cc(=O)oc2cc(O)ccc12 [4-methylumbelliferone] |  |  | pKa [1]: ca. 7.8
2 | CO[C@H]1O[C@H](COS(=O)(=O)O)[C@@H](O[C@@H]2O[C@@H](C(=O)O)[C@@H](O[C@H]3O[C@H](COS(=O)(=O)O)[C@@H](O[C@@H]4O[C@H](C(=O)O)[C@@H](O[C@H]5O[C@H](COS(=O)(=O)O)[C@@H](O)[C@H](O)[C@H]5NS(=O)(=O)O)[C@H](O)[C@H]4O)[C@H](OS(=O)(=O)O)[C@H]3NS(=O)(=O)O)[C@H](O)[C@H]2OS(=O)(=O)O)[C@H](O)[C@H]1NS(=O)(=O)O [fondaparinux] |  |  | Km (heparanase [2]): 46 µM
3 | (2S,3S,4R,5R,6S)-3-(((2R,3R,4R,5S,6R)-4,5-dihydroxy-6-((sulfooxy)methyl)-3-(((E)-trioxidaneyl-14-sulfaneylidene)amino)tetrahydro-2H-pyran-2-yfloxy)-4,5-dihydroxy-6-((4-methyl-2-oxo-2H-chromen-7-yl)oxy)tetrahydro-2H-pyran-2-carboxylic acid [Compound 4] | could not be cleaved by heparanase | could not be activated by heparanase | 
4 | (2S,3S,4R,5R,6S)-6-((8-(difluoromethyl)-4-methyl-2-oxo-2H-chromen-7-yl)oxy)-3-(((2R,3R,4R,5S,6R)-3-((hydrosulfonyloxy)amino)-4,5-dihydroxy-6-(hydroxymethyl)tetrahydro-2H-pyran-2-yl)oxy)-4,5-dihydroxytetrahydro-2H-pyran-2-carboxylic acid [Compound 3] | could not be cleaved by heparanase | very slight fluorescence enhancement | 
5 | Cc1cc(=O)oc2c(F)c(O)c(F)cc12 [DiFMU, 6,8-difluoro-7-hydroxy-4-methylcoumarin, reference compound] |  |  | pKa [5]: ~4.7
